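Each compound was tested at five concentrations against cells in 96-well plates for 48 hours. GI50 marks 50% less growth. TGI: concentration producing complete growth inhibition.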
Assays:
Assay in all cases: NCI tumour cell line growth inhibition, 48 h
786-0 renal = test system: 786-0 renal
A498 renal = test system: A498 renal
A549 NSCLC = test system: A549 NSCLC
ACHN renal = test system: ACHN renal
BT-549 breast = test system: BT-549 breast
CAKI-1 renal = test system: CAKI-1 renal
CCRF-CEM leukemia = test system: CCRF-CEM leukemia
COLO 205 colon = test system: COLO 205 colon
DU-145 prostate = test system: DU-145 prostate
EKVX NSCLC = test system: EKVX NSCLC
HCC-2998 colon = test system: HCC-2998 colon
HCT-116 colon = test system: HCT-116 colon
HCT-15 colon = test system: HCT-15 colon
HL-60(TB) leukemia = test system: HL-60(TB) leukemia
HOP-62 NSCLC = test system: HOP-62 NSCLC
HOP-92 NSCLC = test system: HOP-92 NSCLC
HS 578T breast = test system: HS 578T breast
HT29 colon = test system: HT29 colon
IGROV1 ovarian = test system: IGROV1 ovarian
K-562 leukemia = test system: K-562 leukemia
KM12 colon = test system: KM12 colon
LOX IMVI melanoma = test system: LOX IMVI melanoma
M14 melanoma = test system: M14 melanoma
MALME-3M melanoma = test system: MALME-3M melanoma
MCF7 breast = test system: MCF7 breast
MDA-MB-231 breast = test system: MDA-MB-231 breast
MDA-MB-435 = test system: MDA-MB-435
MOLT-4 leukemia = test system: MOLT-4 leukemia
NCI-H226 lung = test system: NCI-H226 lung
NCI-H23 lung = test system: NCI-H23 lung
NCI-H460 lung = test system: NCI-H460 lung
NCI-H522 lung = test system: NCI-H522 lung
NCI/ADR-RES ovarian = test system: NCI/ADR-RES ovarian
OVCAR-3 ovarian = test system: OVCAR-3 ovarian
OVCAR-4 ovarian = test system: OVCAR-4 ovarian
OVCAR-5 ovarian = test system: OVCAR-5 ovarian
OVCAR-8 ovarian = test system: OVCAR-8 ovarian
PC-3 prostate = test system: PC-3 prostate
RPMI-8226 leukemia = test system: RPMI-8226 leukemia
RXF 393 renal = test system: RXF 393 renal
SF-268 CNS = test system: SF-268 CNS
SF-295 CNS = test system: SF-295 CNS
SF-539 CNS = test system: SF-539 CNS
SK-MEL-2 melanoma = test system: SK-MEL-2 melanoma
SK-MEL-28 melanoma = test system: SK-MEL-28 melanoma
SK-MEL-5 melanoma = test system: SK-MEL-5 melanoma
SK-OV-3 ovarian = test system: SK-OV-3 ovarian
SN12C renal = test system: SN12C renal
SNB-19 CNS = test system: SNB-19 CNS
SNB-75 CNS = test system: SNB-75 CNS
SR leukemia = test system: SR leukemia
SW-620 colon = test system: SW-620 colon
T-47D breast = test system: T-47D breast
TK-10 renal = test system: TK-10 renal
U251 CNS = test system: U251 CNS
UACC-257 melanoma = test system: UACC-257 melanoma
UACC-62 melanoma = test system: UACC-62 melanoma
UO-31 renal = test system: UO-31 renal

`CCn1c(-c2nonc2N)nc2c(C#CC(C)(C)O)nc(OC[C@H](N)c3ccccc3)cc21` showed a GI50 (786-0 renal) of 1.91 µM, a TGI (786-0 renal) of 5.43 µM and a GI50 (A498 renal) of 0.157 µM. It also gave a TGI (A498 renal) of 7.63 µM, a GI50 (A549 NSCLC) of 3.69 µM and a TGI (A549 NSCLC) of 7.45 µM. The GI50 (ACHN renal) was 2.6 µM, the TGI (ACHN renal) was 5.78 µM and the GI50 (BT-549 breast) was 3.39 µM. It also gave a TGI (BT-549 breast) of 6.74 µM, a GI50 (CAKI-1 renal) of 3.94 µM and a TGI (CAKI-1 renal) of 8.93 µM. The GI50 (CCRF-CEM leukemia) was 3.65 µM, the TGI (CCRF-CEM leukemia) was 24.9 µM and the GI50 (COLO 205 colon) was 3.52 µM. It also gave a TGI (COLO 205 colon) of 7 µM, a GI50 (DU-145 prostate) of 3.26 µM and a TGI (DU-145 prostate) of 6.47 µM. It also gave a GI50 (EKVX NSCLC) of 10.8 µM, a TGI (EKVX NSCLC) of 18.1 µM and a GI50 (HCC-2998 colon) of 3.74 µM. It also gave a TGI (HCC-2998 colon) of 7.59 µM, a GI50 (HCT-116 colon) of 3.55 µM and a TGI (HCT-116 colon) of 6.99 µM. For the same molecule, the GI50 (HCT-15 colon) was 2.53 µM, the TGI (HCT-15 colon) was 6.73 µM and the GI50 (HL-60(TB) leukemia) was 5.23 µM. The TGI (HL-60(TB) leukemia) was 10.1 µM, the GI50 (HOP-62 NSCLC) was 5.54 µM and the TGI (HOP-62 NSCLC) was 9.99 µM. For the same molecule, the GI50 (HOP-92 NSCLC) was 2.37 µM, the TGI (HOP-92 NSCLC) was 7.38 µM and the GI50 (HS 578T breast) was 1.8 µM. The TGI (HS 578T breast) was 7.28 µM, the GI50 (HT29 colon) was 4.11 µM and the TGI (HT29 colon) was 8.81 µM. For the same molecule, the GI50 (IGROV1 ovarian) was 2.63 µM, the TGI (IGROV1 ovarian) was 7.23 µM and the GI50 (K-562 leukemia) was 5.09 µM. For the same molecule, the TGI (K-562 leukemia) was 14 µM, the GI50 (KM12 colon) was 2.99 µM and the TGI (KM12 colon) was 6.39 µM. It also gave a GI50 (LOX IMVI melanoma) of 3.84 µM, a TGI (LOX IMVI melanoma) of 7.89 µM and a GI50 (M14 melanoma) of 3.94 µM. It also gave a TGI (M14 melanoma) of 7.47 µM, a GI50 (MALME-3M melanoma) of 4.69 µM and a TGI (MALME-3M melanoma) of 9.35 µM. It also gave a GI50 (MCF7 breast) of 2.92 µM, a TGI (MCF7 breast) of 6.16 µM and a GI50 (MDA-MB-231 breast) of 4.35 µM. For the same molecule, the TGI (MDA-MB-231 breast) was 8.83 µM, the GI50 (MDA-MB-435) was 4.79 µM and the TGI (MDA-MB-435) was 9.42 µM. It also gave a GI50 (MOLT-4 leukemia) of 3.09 µM, a TGI (MOLT-4 leukemia) of 14.7 µM and a GI50 (NCI-H226 lung) of 11.9 µM. For the same molecule, the TGI (NCI-H226 lung) was 15.8 µM, the GI50 (NCI-H23 lung) was 5.21 µM and the TGI (NCI-H23 lung) was 12.4 µM. It also gave a GI50 (NCI-H460 lung) of 2.76 µM, a TGI (NCI-H460 lung) of 6.31 µM and a GI50 (NCI-H522 lung) of 4.47 µM. The TGI (NCI-H522 lung) was 8.63 µM, the GI50 (NCI/ADR-RES ovarian) was 5.31 µM and the TGI (NCI/ADR-RES ovarian) was 13.9 µM. For the same molecule, the GI50 (OVCAR-3 ovarian) was 3.56 µM, the TGI (OVCAR-3 ovarian) was 6.84 µM and the GI50 (OVCAR-4 ovarian) was 5.01 µM. For the same molecule, the TGI (OVCAR-4 ovarian) was 9.61 µM, the GI50 (OVCAR-5 ovarian) was 5.69 µM and the TGI (OVCAR-5 ovarian) was 9.99 µM. The GI50 (OVCAR-8 ovarian) was 4.21 µM, the TGI (OVCAR-8 ovarian) was 9.44 µM and the GI50 (PC-3 prostate) was 3.92 µM. The TGI (PC-3 prostate) was 8.87 µM, the GI50 (RPMI-8226 leukemia) was 6.04 µM and the TGI (RPMI-8226 leukemia) was 14 µM. The GI50 (RXF 393 renal) was 1.28 µM, the TGI (RXF 393 renal) was 4.73 µM and the GI50 (SF-268 CNS) was 4.94 µM. For the same molecule, the TGI (SF-268 CNS) was 11.2 µM, the GI50 (SF-295 CNS) was 2.95 µM and the TGI (SF-295 CNS) was 7.22 µM. It also gave a GI50 (SF-539 CNS) of 2.35 µM, a TGI (SF-539 CNS) of 6.07 µM and a GI50 (SK-MEL-2 melanoma) of 4.12 µM. The TGI (SK-MEL-2 melanoma) was 8.24 µM, the GI50 (SK-MEL-28 melanoma) was 4.75 µM and the TGI (SK-MEL-28 melanoma) was 8.56 µM. It also gave a GI50 (SK-MEL-5 melanoma) of 4.21 µM, a TGI (SK-MEL-5 melanoma) of 7.64 µM and a GI50 (SK-OV-3 ovarian) of 1.56 µM. The TGI (SK-OV-3 ovarian) was 5.71 µM, the GI50 (SN12C renal) was 3.67 µM and the TGI (SN12C renal) was 7.38 µM. The GI50 (SNB-19 CNS) was 7.3 µM, the TGI (SNB-19 CNS) was 20.5 µM and the GI50 (SNB-75 CNS) was 0.926 µM. The TGI (SNB-75 CNS) was 4.65 µM, the GI50 (SR leukemia) was 6.24 µM and the TGI (SR leukemia) was 16.3 µM. The GI50 (SW-620 colon) was 4.47 µM, the TGI (SW-620 colon) was 8.67 µM and the GI50 (T-47D breast) was 2.88 µM. The TGI (T-47D breast) was 7.53 µM, the GI50 (TK-10 renal) was 2.69 µM and the TGI (TK-10 renal) was 6.37 µM. The GI50 (U251 CNS) was 3.21 µM, the TGI (U251 CNS) was 6.67 µM and the GI50 (UACC-257 melanoma) was 5.18 µM. It also gave a TGI (UACC-257 melanoma) of 9.43 µM, a GI50 (UACC-62 melanoma) of 4.24 µM and a TGI (UACC-62 melanoma) of 8.08 µM. For the same molecule, the GI50 (UO-31 renal) was 2.91 µM and the TGI (UO-31 renal) was 6.83 µM.

`CCOC(=O)C1=C(C)N(Cc2ccc(Cl)cc2Cl)C2(O)C=CC(=O)C3C(=O)N(c4ccccc4)C(=O)C132` (configuration not stated) was tested, and the TGI (786-0 renal) was > 100 µM, the TGI (A498 renal) was 16.9 µM and the TGI (A549 NSCLC) was 5.74 µM. The TGI (ACHN renal) was 3.08 µM, the TGI (BT-549 breast) was 3.27 µM and the TGI (CAKI-1 renal) was 9.36 µM. The TGI (CCRF-CEM leukemia) was 1.4 µM, the TGI (COLO 205 colon) was 3.36 µM and the TGI (DU-145 prostate) was 2.97 µM. The TGI (EKVX NSCLC) was 4.35 µM, the TGI (HCC-2998 colon) was 3.54 µM and the TGI (HCT-116 colon) was > 100 µM. It also gave a TGI (HCT-15 colon) of 3.88 µM, a TGI (HL-60(TB) leukemia) of 6.67 µM and a TGI (HOP-62 NSCLC) of 29.5 µM. It also gave a TGI (HOP-92 NSCLC) of 4.09 µM, a TGI (HS 578T breast) of 36.3 µM and a TGI (HT29 colon) of 3.5 µM. For the same molecule, the TGI (IGROV1 ovarian) was 3.51 µM, the TGI (K-562 leukemia) was 4.04 µM and the TGI (KM12 colon) was 3.65 µM. It also gave a TGI (LOX IMVI melanoma) of 2.38 µM, a TGI (M14 melanoma) of 16 µM and a TGI (MALME-3M melanoma) of 8.67 µM. For the same molecule, the TGI (MCF7 breast) was 5.11 µM, the TGI (MDA-MB-231 breast) was 6.44 µM and the TGI (MDA-MB-435) was 7.24 µM. The TGI (MOLT-4 leukemia) was 4.93 µM, the TGI (NCI-H226 lung) was 3.09 µM and the TGI (NCI-H23 lung) was 3.53 µM. For the same molecule, the TGI (NCI-H460 lung) was 5.77 µM, the TGI (NCI-H522 lung) was 3.64 µM and the TGI (NCI/ADR-RES ovarian) was 11.1 µM. It also gave a TGI (OVCAR-3 ovarian) of 3.44 µM, a TGI (OVCAR-4 ovarian) of 4.2 µM and a TGI (OVCAR-5 ovarian) of 22.3 µM. For the same molecule, the TGI (OVCAR-8 ovarian) was 7.89 µM, the TGI (PC-3 prostate) was 3.55 µM and the TGI (RPMI-8226 leukemia) was 2.18 µM. For the same molecule, the TGI (RXF 393 renal) was 2.87 µM, the TGI (SF-268 CNS) was 11.3 µM and the TGI (SF-295 CNS) was 11.2 µM. The TGI (SF-539 CNS) was 5.38 µM, the TGI (SK-MEL-2 melanoma) was 4.27 µM and the TGI (SK-MEL-28 melanoma) was 3.53 µM. The TGI (SK-MEL-5 melanoma) was 8.57 µM, the TGI (SN12C renal) was 4.93 µM and the TGI (SNB-19 CNS) was 3.73 µM. For the same molecule, the TGI (SR leukemia) was 2.23 µM, the TGI (SW-620 colon) was 5.97 µM and the TGI (T-47D breast) was 3.12 µM. The TGI (TK-10 renal) was 8.09 µM, the TGI (U251 CNS) was 3.8 µM and the TGI (UACC-257 melanoma) was 5.81 µM. It also gave a TGI (UACC-62 melanoma) of 3.74 µM and a TGI (UO-31 renal) of 5 µM.

Source: PubChem BioAssay (NCI)
